The values below come from PubChem BioAssay AID720632 (Broad Institute, 2013).

The assay concerns the target Caspase-6 (Homo sapiens) (UniProt P55212). Nature of the assay: human caspase-6 inhibitors, dose response, biochemical, VEID-R110 fluorescence, cherry-pick (AID 720632). Conditions: caspase-6, VEID-R110 fluorogenic substrate; for activity change, negative = inhibition: at 26 µM (top of the series).

The source made the active and inactive calls. The rule behind the calls is not given here.

Caspase-6 (Homo sapiens), sequence (P55212 24-179 limits assumed): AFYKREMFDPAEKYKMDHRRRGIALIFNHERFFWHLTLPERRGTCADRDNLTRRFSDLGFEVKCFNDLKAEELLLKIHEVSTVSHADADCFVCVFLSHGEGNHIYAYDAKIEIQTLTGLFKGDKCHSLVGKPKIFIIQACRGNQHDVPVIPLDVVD
Caspase-6 (Homo sapiens), sequence (P55212 194-293 limits assumed): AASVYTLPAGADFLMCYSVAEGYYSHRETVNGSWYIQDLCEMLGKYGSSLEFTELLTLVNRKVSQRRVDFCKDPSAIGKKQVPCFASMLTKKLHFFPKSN

Turning to `Nc1cccnc1Oc1ccc(F)cc1F`, the “activity change, negative = inhibition” value is “inactive”.
On the same count and under the same terms, next, `O=[N+]([O-])c1ccccc1S(=O)(=O)Nc1nc2ccccc2s1`: “inactive”.
`CCO[C@H]1OC(C(=O)N2CCOCC2)=C[C@@H](c2ccc3c(c2)OCO3)[C@@H]1CCCO`: the “activity change, negative = inhibition” value is “inactive”.
On to `C[CH2][Hg][S]c1ccccc1C(=O)O`, for which the AC50 – broadly, the concentration at which the activity in the assay is half-maximal – is 6.91 µM.
In the case of `CCOC(=O)c1c(C)c(C(=O)NCc2ccc(OC)cc2)c(C)n1C`, the “activity change, negative = inhibition” value is “inactive”.
Regarding `CC(Nc1ccc2ccccc2c1)C(=O)N/N=C/c1ccncc1` (stereo unspecified), the “activity change, negative = inhibition” value was “inactive”.
On to `OC[C@H]1[C@H](c2ccc(-c3ccc(F)cc3)cc2)[C@@H]2CN(Cc3cccnc3)CCCCN12`, for which the “activity change, negative = inhibition” value was “inactive”.
Consider `c1ccc(CCNc2ccc3ncc(-c4cccc5ccccc45)n3n2)nc1`, for which the “activity change, negative = inhibition” value is “inactive”.
In the case of `CCC1=NN(C(=O)c2ccc(Cl)cc2)C(O)(c2ccc(C)cc2)C1` (stereo unspecified), the “activity change, negative = inhibition” value was “inactive”.
On the same count and under the same terms, as for `CN(CC(=O)Nc1ccccc1Cl)C(=O)COC(=O)c1cccs1`, the entry is “inactive”.
With `N#CC1C(=O)Nc2cccnc21` (stereo unspecified), the “activity change, negative = inhibition” value is “inactive”.
Take `O=C1C2C3C=CC(CC3)C2C(=O)N1c1nccs1` (stereo unspecified): the “activity change, negative = inhibition” value was “inactive”.
Take `Cc1ccc(C)c(S(=O)(=O)N2CCN(C(C)C(=O)Nc3ccccc3-c3ccccc3)CC2)c1` (stereo unspecified): the “activity change, negative = inhibition” value is “inactive”.
`CCOc1ccc(S(=O)(=O)NCCC(=O)NCC2(N3CCCCC3)CCCCC2)cc1`: the “activity change, negative = inhibition” value is “inactive”.
Take `CCCN1C[C@@H](C)[C@H](OC)CN(C)C(=O)c2ccc(NC(=O)c3ccccc3)cc2OC[C@@H]1C`: the “activity change, negative = inhibition” value is “inactive”.
Consider `COc1ccc(N2CCN(C(=O)CCCCCn3c(=S)[nH]c4cc5c(cc4c3=O)OCO5)CC2)cc1`, for which the “activity change, negative = inhibition” value was “inactive”.
Same read-out and setting: next, `N[C@@H](Cc1cc(I)c(O)c(I)c1)C(=O)O`: “inactive”.
For the compound `CC(C)OCCCNC(=O)CN1C(=O)COc2ccc(S(=O)(=O)N3CCCCCC3)cc21`, the “activity change, negative = inhibition” value is “inactive”.
The same measure, in the same setting: as for `CCC(=O)Nc1ccc2c(c1)OC[C@H](C)N(C(=O)C1CC1)C[C@@H](C)[C@@H](OC)CN(C)C2=O`, the entry is “inactive”; as for `C/C=C/c1ccc([C@@H]2[C@H](CO)N(C(=O)C3CCCC3)C23CN(S(C)(=O)=O)C3)cc1`, “inactive”.
Still for that read-out and setting: next, `O=C(C[C@@H]1C[C@H]2c3cc(NC(=O)Nc4ccccc4F)ccc3O[C@H]2[C@H](CO)O1)NC1CCCC1`: “inactive”; `COc1ccc(/C=N/NC(=O)c2ccccc2O)cc1CN1CCOCC1`: “inactive”.
The same measure, in the same setting: next, `COc1ccc(OC)c(N/C(=N/c2nc(C)cc(C)n2)NC(C)=O)c1`: “inactive”; `CC(=O)Nc1ccc(NC(=O)COC(=O)c2ccc([N+](=O)[O-])o2)cc1`: “inactive”; `O=C([C@H]1[C@H](CO)[C@H]2Cn3c(cccc3=O)[C@H]2N1Cc1ccccn1)N1CCC(Cc2ccccc2)CC1`: “inactive”.
Turning to `OCc1ccccc1-c1nc(NCc2ccccc2)nc2ccsc12`, the “activity change, negative = inhibition” value is “inactive”.
On to `CSCCC(NC(=O)COc1ccccc1)C(=O)N(C)CC(=O)Nc1c(C)cccc1C` (stereo unspecified), for which the “activity change, negative = inhibition” value was “inactive”.
Still for that read-out and setting: next, `COc1ccc(OCCN2CCC(C(=O)NC(c3ccccn3)c3ccccc3OC)CC2)cc1` (stereo unspecified): “inactive”; `CCC(=O)Nc1ccc2c(c1)OC[C@@H](C)N(C(=O)CC)C[C@H](C)[C@@H](OC)CN(C)C2=O`: “inactive”.
Still for that read-out and setting: as for `COc1ccc(O)c(C(c2c(C)[nH][nH]c2=O)c2c(C)[nH][nH]c2=O)c1`, the entry is “inactive”.
On to `CC(OC(=O)c1n[nH]c2ccccc12)C(=O)Nc1ccccc1[N+](=O)[O-]` (stereo unspecified), for which the “activity change, negative = inhibition” value was “inactive”.
